According to patent US5571524A, “Agent for curing ischemic myocardial disease” (Unitika Ltd., priority 1994, dated 1996):

Tests used:
Assay type in all cases: in vivo
[1] = tested on: Mongrel dogs; assay: Coronary blood flow increase effect, nonischemic condition; details: for Coronary blood flow: 8-SPT and/or L-NAME alone, before Ap4A, N = 1 - 2
Protocol: (§1) Mongrel dogs weighing 18-22 kg were anesthetized with pentobarbital sodium (30 mg/kg). The trachea was intubated, and the dog was ventilated with room air with oxygen. The chest was opened through the left fifth intercostal space, and the heart was suspended in a pericardial cradle. The left anterior descending coronary artery was cannulated and perfused with blood via the carotid artery through an extracorporeal bypass tube after heparinization (500 units/kg). Coronary blood flow (CBF) was measured with an electromagnetic flow probe attached to the bypass tube, and coronary perfusion pressure (CPP) was monitored at the tip of the coronary arterial cannula. A small, short collecting tube was cannulated into a small coronary vein near the center of the perfused area to sample coronary venous blood. The drained venous blood was collected in a reservoir placed at the level of the left atrium. A high fidelity of left ventricular pressure and its first derivative were measured by a micromanometer (model P-5, Konigsberg Instruments, Inc., Pasadena, Calif.) placed in the left ventricular cavity through the apex. A pair of ultrasonic crystals was placed in the center of the perfused area about 1 cm apart to measure myocardial segment length with an ultrasonic dimension gauge (5 MHz, Schuessler, Cardiff by the Sea, Calif.). End-diastolic length (EDL) was determined at the R wave of the electrocardiogram, and end-systolic length (ESL) was determined at the minimal dP/dt. Fractional shortening was calculated by (EDL-ESL)/EDL as an index of myocardial contractility of the perfused area.
After stabilization, a physiological saline solution […], with the dosage thereof increased to 0.5, 1, 2, 4 and 8 μg/kg/min, and the changes in coronary blood flow were measured in order to assess the coronary blood flow increase effect of Ap4A.
8-sulfophenyltheophylline (hereinafter referred to as 8-SPT) serving as adenosine P1 receptor antagonist with a dose of 25 μg/kg/min was tested.
The above test was also repeated by replacing 8-SPT with N^G -nitro-L-arginine methyl ester (hereinafter referred to as L-NAME) serving as an endothelial-cell-induced nitric oxide (NO) synthesis inhibitor with a dose of 3 μg/kg/min(ic).
The above test was then repeated using 8-SPT and L-NAME in combination.

[2] = tested on: Mongrel dogs; assay: Amelioration of myocardial ischemia: coronary blood flow, fractional shortening and perfusion pressure during factitious 1/3 blood flow; details: for Myocardial fractional shortening / Coronary blood flow / Coronary perfusion pressure: ischemia (1/3 blood flow); for Myocardial fractional shortening: control 26.9, 1/3 control 5.3; for Coronary blood flow: control 91.3, 1/3 control 21.2; for Coronary perfusion pressure: control 93.0, 1/3 control 57.0
Protocol: as §1
(§2) After stabilization, CPP was decreased with partial occlusion of the bypass tube to the left anterior descending coronary artery such that CBF decreased to one third of the control flow. The low CPP was maintained during this test.
(§3) Blood sampling from coronary veins and coronary arteries was conducted. Then the intracoronary administration of Ap4A was stopped. The lowered coronary perfusion pressure was further maintained for 10 minutes.
(§4) The above test was repeated by replacing Ap4A with adenosine with the dosage thereof being changed to 4, 8 and 16 μg/kg/min.

[3] = tested on: Mongrel dogs; assay: Lactate extraction ratio and pH of venous blood during ischemia; details: for pH of venous blood / Lactate extraction ratio: ischemia (1/3 blood flow); for pH of venous blood: control 7.46, 1/3 control 7.23; for Lactate extraction ratio: control 26.5, 1/3 control -67.9
Protocol: as §1
Namely, the lactate extraction ratio was obtained by coronary arteriovenous difference in lactate concentration multiplied by 100 and divided by arterial lactate concentration.
as §2, §3, §4
As mentioned previously, in the above-mentioned experimental systems, lactate extraction ratio and pH of venous blood were measured at the time of the intracoronary administration of Ap4A and also at the time of the intracoronary administration of adenosine.

[4] = adenosine 4 μg/kg/min intracoronary
[5] = adenosine 8 μg/kg/min intracoronary
[6] = adenosine 16 μg/kg/min intracoronary

SMILES: Cn1c(=O)c2[nH]c(-c3ccc(S(=O)(=O)O)cc3)nc2n(C)c1=O [8-SPT, 8-sulfophenyltheophylline, reference compound]
- inhibition of the effect of adenosine ([1]; 8-SPT 25 μg/kg/min): completely inhibited
- Coronary blood flow [1]: 93.7 ml/100 g/min

SMILES: Nc1ncnc2c1ncn2[C@@H]1O[C@H](CO)[C@@H](O)[C@H]1O [Adenosine, adenosine]
- Myocardial fractional shortening ([2]; adenosine 4 μg/kg/min): 5.9%
- Coronary blood flow ([2]; adenosine 4 μg/kg/min): 18.2 ml/100 g/min
- Coronary perfusion pressure ([2]; adenosine 4 μg/kg/min): 56.0 mmHg
- Myocardial fractional shortening ([2]; adenosine 8 μg/kg/min): 3.9%
- Coronary blood flow ([2]; adenosine 8 μg/kg/min): 18.2 ml/100 g/min
- Coronary perfusion pressure ([2]; adenosine 8 μg/kg/min): 56.0 mmHg
- Myocardial fractional shortening ([2]; adenosine 16 μg/kg/min): 5.3%
- Coronary blood flow ([2]; adenosine 16 μg/kg/min): 18.2 ml/100 g/min
- Coronary perfusion pressure ([2]; adenosine 16 μg/kg/min): 56.0 mmHg
- changes in coronary blood flow and myocardial fractional shortening ([2]; ischemia, adenosine 4, 8 and 16 μg/kg/min): no substantial changes in coronary blood flow and myocardial fractional shortening
- amelioration effect on myocardial ischemia ([2]; mongrel dogs in a state of excessive ischemia): unaffected
- amelioration of lactate extraction ratio and pH ([3]; ischemia): no such amelioration effects
- pH of venous blood [3, 4]: 7.19
- Lactate extraction ratio [3, 4]: -73.2%
- pH of venous blood [3, 5]: 7.25
- Lactate extraction ratio [3, 5]: -69.8%
- pH of venous blood [3, 6]: 7.22
- Lactate extraction ratio [3, 6]: -73.2%

SMILES: COC(=O)[C@@H](N)CCCNC(=N)N[N+](=O)[O-] [L-NAME, N^G -nitro-L-arginine methyl ester, reference compound]
- Coronary blood flow [1]: 90.3 ml/100 g/min
